Measured values: ChEMBL document CHEMBL3045374, “Selective herbicide activity of 2,5-di(benzylamine)-p-benzoquinone against the monocot weed Echinochloa crusgalli. An in vivo analysis of photosynthesis and growth” (2005)
Calls of active or inactive are those of the source. The calls are words filed in the database; no cut-off is given here.

Tests used:
[1] = test system: Phaseolus vulgaris; assay: Herbicidal activity against Phaseolus vulgaris using youngest fully expanded leaf assessed as inhibition of stomatal conductance at 40 uM at 25 to 28 degC measured after 120 hr; type: functional, organism-based
[2] = test system: Echinochloa crus-galli; assay: Herbicidal activity against Echinochloa crus-galli (barnyard grass) using youngest fully expanded leaf assessed as inhibition of CO2 assimilation at 40 uM at 25 to 28 degC measured after 1 hr; type: functional
[3] = test system: Echinochloa crus-galli; assay: Herbicidal activity against Echinochloa crus-galli (barnyard grass) using youngest fully expanded leaf assessed as inhibition of stomatal conductance at 40 uM at 25 to 28 degC measured after 1 hr; type: functional
[4] = test system: Echinochloa crus-galli; assay: Herbicidal activity against Echinochloa crus-galli (barnyard grass) using youngest fully expanded leaf assessed as inhibition of stomatal conductance at 40 uM at 25 to 28 degC measured after 20 hr; type: functional
[5] = test system: Echinochloa crus-galli; assay: Herbicidal activity against Echinochloa crus-galli (barnyard grass) using youngest fully expanded leaf assessed as inhibition of CO2 assimilation at 40 uM at 25 to 28 degC measured after 24 hr; type: functional
[6] = test system: Phaseolus vulgaris; assay: Herbicidal activity against Phaseolus vulgaris using youngest fully expanded leaf assessed as inhibition of CO2 assimilation at 40 uM at 25 to 28 degC measured after 120 hr; type: functional, organism-based
[7] = molecular target: T1, Photosystem I iron-sulfur center (Panicum virgatum) (UniProt G3EFH9); assay: Inhibition of PSI in Echinochloa crus-galli (barnyard grass) assessed as 50% compound concentration required to accept electrons
T1 sequence (whole entry): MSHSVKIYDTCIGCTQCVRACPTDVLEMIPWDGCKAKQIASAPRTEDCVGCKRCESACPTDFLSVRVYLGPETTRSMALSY

[8] = test system: Echinochloa crus-galli; assay: Herbicidal activity against Echinochloa crus-galli (barnyard grass) assessed as chlorophyll loss at 40 uM measured after 5 days treatment (reference value: 0%); type: functional
[9] = test system: Echinochloa crus-galli; assay: Herbicidal activity against Echinochloa crus-galli (barnyard grass) assessed as electrolyte leakage at 40 uM measured after 5 days treatment (reference value: 100%); type: functional
[10] = test system: Echinochloa crus-galli; assay: Herbicidal activity against Echinochloa crus-galli (barnyard grass) using youngest fully expanded leaf assessed as inhibition of CO2 assimilation at 40 uM at 25 to 28 degC measured after 5 days; type: functional, organism-based
[11] = test system: Physalis ixocarpa; assay: Herbicidal activity against Physalis ixocarpa assessed as reduction in dry biomass at 40 uM measured after 14 days treatment; type: functional, organism-based
[12] = test system: Phaseolus vulgaris; assay: Herbicidal activity against Phaseolus vulgaris assessed as reduction in dry biomass at 40 uM measured after 14 days treatment; type: functional, organism-based
[13] = test system: Echinochloa crus-galli; assay: Herbicidal activity against Echinochloa crus-galli (barnyard grass) assessed as reduction in dry biomass at 40 uM measured after 14 days treatment; type: functional; conditions: 336 h
[14] = test system: Zea mays; assay: Herbicidal activity against Zea mays (maize) assessed as reduction in dry biomass at 40 uM measured after 14 days treatment; type: functional; conditions: 336 h
[15] = molecular target: Photosystem II reaction center protein M (Pennisetum americanum) (UniProt Q672I5); assay: Inhibition of PSII in Echinochloa crus-galli (barnyard grass) using leaf assessed as inhibition of electron transport at 40 uM measured after 7 to 14 days
[16] = test system: Solanum lycopersicum; assay: Induction of chlorophyll a fluorescence curve in green Solanum lycopersicum (tomato) leaf relative to control; type: functional, organism-based
[17] = test system: Fabaceae; assay: Induction of chlorophyll a fluorescence curve in Fabaceae (bean) leaf relative to control; type: functional, organism-based
[18] = test system: Zea mays; assay: Induction of chlorophyll a fluorescence curve in Zea mays (maize) leaf relative to control; type: functional, organism-based
[19] = molecular target: T1, Photosystem I iron-sulfur center (Panicum virgatum); assay: Inhibition of PSI in Echinochloa crus-galli (barnyard grass) using dark-adapted leaf assessed as photosynthetic electron transport at 40 uM measured after 1 hr by chlorophyll fluorescence induction curve assay
[20] = molecular target: Photosystem II reaction center protein M (Pennisetum americanum) (UniProt Q672I5); assay: Inhibition of PSII in Echinochloa crus-galli (barnyard grass) using dark-adapted leaf assessed as photosynthetic electron transport at 40 uM measured after 1 hr by chlorophyll fluorescence induction curve assay
[21] = test system: Physalis ixocarpa; assay: Herbicidal activity against Physalis ixocarpa using youngest fully expanded leaf assessed as intracellular CO2 concentration at 40 uM at 25 to 28 degC measured after 120 hr (reference value: 254.0 +/- 8.6 uL/L); type: functional
[22] = test system: Phaseolus vulgaris; assay: Herbicidal activity against Phaseolus vulgaris using youngest fully expanded leaf assessed as intracellular CO2 concentration at 40 uM at 25 to 28 degC measured after 120 hr (reference value: 256.0 +/- 5.8 uL/L); type: functional
[23] = test system: Echinochloa crus-galli; assay: Herbicidal activity against Echinochloa crus-galli (barnyard grass) using youngest fully expanded leaf assessed as intracellular CO2 concentration at 40 uM at 25 to 28 degC measured after 120 hr (reference value: 171.0 +/- 23.1 uL/L); type: functional
[24] = test system: Zea mays; assay: Herbicidal activity against Zea mays (maize) using youngest fully expanded leaf assessed as intracellular CO2 concentration at 40 uM at 25 to 28 degC measured after 120 hr (reference value: 196.1 +/- 4.9 uL/L); type: functional
[25] = test system: Physalis ixocarpa; assay: Herbicidal activity against Physalis ixocarpa using youngest fully expanded leaf assessed as stomatal conductance at 40 uM at 25 to 28 degC measured after 120 hr (reference value: 184.6 +/- 36.6 mmol/m'2/s); type: functional
[26] = test system: Phaseolus vulgaris; assay: Herbicidal activity against Phaseolus vulgaris using youngest fully expanded leaf assessed as stomatal conductance at 40 uM at 25 to 28 degC measured after 120 hr (reference value: 161.8 +/- 10 mmol/m'2/s); type: functional
[27] = test system: Echinochloa crus-galli; assay: Herbicidal activity against Echinochloa crus-galli (barnyard grass) using youngest fully expanded leaf assessed as stomatal conductance at 40 uM at 25 to 28 degC measured after 120 hr (reference value: 100.7 +/- 8.6 mmol/m'2/s); type: functional
[28] = test system: Zea mays; assay: Herbicidal activity against Zea mays (maize) using youngest fully expanded leaf assessed as stomatal conductance at 40 uM at 25 to 28 degC measured after 120 hr (reference value: 103.9 +/- 6.5 mmol/m'2/s); type: functional
[29] = test system: Physalis ixocarpa; assay: Herbicidal activity against Physalis ixocarpa using youngest fully expanded leaf assessed as inhibition of CO2 assimilation at 40 uM at 25 to 28 degC measured after 120 hr (reference value: 6.3 +/- 0.6 umol/m'2/s); type: functional
[30] = test system: Phaseolus vulgaris; assay: Herbicidal activity against Phaseolus vulgaris using youngest fully expanded leaf assessed as inhibition of CO2 assimilation at 40 uM at 25 to 28 degC measured after 120 hr (reference value: 7.2 +/- 0.3 umol/m'2/s); type: functional
[31] = test system: Echinochloa crus-galli; assay: Herbicidal activity against Echinochloa crus-galli (barnyard grass) using youngest fully expanded leaf assessed as inhibition of CO2 assimilation at 40 uM at 25 to 28 degC measured after 120 hr (reference value: 10.7 +/- 1.1 umol/m'2/s); type: functional
[32] = test system: Zea mays; assay: Herbicidal activity against Zea mays (maize) using youngest fully expanded leaf assessed as inhibition of CO2 assimilation at 40 uM at 25 to 28 degC measured after 120 hr (reference value: 8 +/- 0.4 umol/m'2/s); type: functional
[33] = test system: Echinochloa crus-galli; assay: Herbicidal activity against Echinochloa crus-galli (barnyard grass) using youngest fully expanded leaf assessed as inhibition of stomatal conductance at 40 uM at 25 to 28 degC measured after 120 hr; type: functional, organism-based

With C[C@H](NC1=CC(=O)C(N[C@@H](C)[C@H](O)c2ccccc2)=CC1=O)[C@H](O)c1ccccc1 the inhibition [1] was “inactive”, the inhibition at 40 µM [2] was 80% and the inhibition at 40 µM [3] was 45%. For the same compound, the inhibition at 40 µM [4] was 62%, the inhibition at 40 µM [5] was 84% and the inhibition [6] was “inactive”.
Compound C[n+]1ccc(-c2cc[n+](C)cc2)cc1 [PARAQUAT] has an Activity [7] of 110 µM, an Activity [8] of 44.3% and an Activity [9] of 438.59%.
With CC(NC1=CC(=O)C(NC(C)c2ccccc2)=CC1=O)c1ccccc1 (configuration not stated) the inhibition [1] was “inactive”, the inhibition at 40 µM [2] was 80% and the inhibition at 40 µM [3] was 45%. For the same compound, the inhibition at 40 µM [4] was 62%, the inhibition at 40 µM [5] was 84% and the inhibition [6] was “inactive”.
With O=C1C=C(Nc2ccccc2O)C(=O)C=C1Nc1ccccc1O the inhibition [1] was “inactive”, the inhibition at 40 µM [2] was 80% and the inhibition at 40 µM [3] was 45%. The inhibition at 40 µM [4] was 62%, the inhibition at 40 µM [5] was 84% and the inhibition [10] was “Active”. For the same compound, the inhibition [6] was “inactive”.
COc1ccccc1NC1=CC(=O)C(Nc2ccccc2OC)=CC1=O was tested, and the inhibition [1] was “inactive”, the inhibition at 40 µM [2] was 80% and the inhibition at 40 µM [3] was 45%. The inhibition at 40 µM [4] was 62%, the inhibition at 40 µM [5] was 84% and the inhibition [6] was “inactive”.
O=C1C=C(Nc2ccccc2)C(=O)C=C1Nc1ccccc1 was tested, and the inhibition [1] was “inactive”, the inhibition at 40 µM [2] was 80% and the inhibition at 40 µM [3] was 45%. The inhibition at 40 µM [4] was 62%, the inhibition at 40 µM [5] was 84% and the inhibition [10] was “Active”. For the same compound, the inhibition [6] was “inactive”.
Work on O=C1C=C(NCc2ccccc2)C(=O)C=C1NCc1ccccc1 yielded an Activity [7] of 0.23 µM, an Activity [8] of 3.5% and an Activity [9] of 135.6%. The inhibition [11] was “inactive”, the inhibition [12] was “inactive” and the inhibition at 40 µM [13] was 76.5%. The inhibition at 40 µM [14] was 60%, the inhibition [15] was 44% and the Activity [16] was “inactive”. The Activity [17] was “inactive”, the Activity [18] was “inactive” and the inhibition [19] was “Active”. The inhibition [20] was “inactive”, the Activity [21] was 254.3 uL/L and the Activity [22] was 254 uL/L. For the same compound, the Activity [23] was 221 uL/L, the Activity [24] was 212 uL/L and the Activity [25] was 151.2 mmol/m2/s. The Activity [26] was 150 mmol/m2/s, the Activity [27] was 75.3 mmol/m2/s and the Activity [28] was 82.4 mmol/m2/s. For the same compound, the Activity [29] was 5.6 micromol/m2/s, the Activity [30] was 7 micromol/m2/s and the Activity [31] was 4.2 micromol/m2/s. For the same compound, the Activity [32] was 7.2 micromol/m2/s, the inhibition [1] was “inactive” and the inhibition at 40 µM [2] was 80%. For the same compound, the inhibition at 40 µM [3] was 45%, the inhibition at 40 µM [4] was 62% and the inhibition at 40 µM [5] was 84%. For the same compound, the inhibition [33] was “Active” and the inhibition [6] was “inactive”.
